Results: US8946453B2, “Chemical compounds” (Syngenta Participations AG, priority 2011, dated 2015)

How the values were obtained:
[1] = test system: Myzus persicae (Green Peach Aphid); experiment: Activity against Myzus persicae on cabbage plants, feeding/residual contact, spray chamber; conditions: in Brassica oleracea, 144 h, read-out: activity against Myzus persicae
[2] = test system: Myzus persicae (Green Peach Aphid); experiment: Activity against Myzus persicae, mixed population, feeding/residual contact, preventive (sunflower leaf discs); conditions: foliar, 144 h, read-out: activity
[3] = test system: Myzus persicae (Green Peach Aphid); experiment: Activity against Myzus persicae, mixed population, systemic/feeding, curative (pea seedling roots in test solution); conditions: 144 h, read-out: activity

| melting point [°C] | SMILES | pest or weed control at 200 ppm [1] [%] | pest or weed control at 400 ppm [2] [%] | pest or weed control at 400 ppm [3] [%] |
| --- | --- | --- | --- | --- |
| 91 to 93 | CCOC(=O)OC1=C(c2cc(C)ccc2C)C(=O)NC1CC1CCS(=O)(=NC(=O)C(F)(F)F)CC1 (single isomer, unassigned) [Compound P1.6, carbonic acid 4-(2,5-dimethyl-phenyl)-5-oxo-2-[1-oxo-1-(2,2,2-trifluoro-acetylimino)-hexahydro-1λ^6-thiopyran-4-ylmethyl]-2,5-dihydro-1H-pyrrol-3-yl ester ethyl ester] | – | – | – |
| 87 to 89 | CCOC(=O)OC1=C(c2cc(C)ccc2C)C(=O)NC1CC1CCS(=O)(=NC(=O)C(F)(F)F)CC1 (single isomer, unassigned) [Compound P1.7, carbonic acid 4-(2,5-dimethyl-phenyl)-5-oxo-2-[1-oxo-1-(2,2,2-trifluoro-acetylimino)-hexahydro-1λ^6-thiopyran-4-ylmethyl]-2,5-dihydro-1H-pyrrol-3-yl ester ethyl ester] | – | – | – |
| – | CCOC(=O)OC1=C(c2cc(C)ccc2C)C(=O)NC1CC1CCN(OC)CC1 (stereo not drawn) [Compound P1.1, carbonic acid 4-(2,5-dimethyl-phenyl)-2-(1-methoxy-piperidin-4-ylmethyl)-5-oxo-2,5-dihydro-1H-pyrrol-3-yl ester ethyl ester] | ≥ 80 | > 80 | – |
| 75 to 76 | CCOC(=O)OC1=C(c2cc(C)ccc2C)C(=O)NC1CC1CCSCC1 (stereo not drawn) [Compound P1.2, carbonic acid 4-(2,5-dimethyl-phenyl)-5-oxo-2-(tetrahydro-thiopyran-4-ylmethyl)-2,5-dihydro-1H-pyrrol-3-yl ester ethyl ester] | – | – | – |
| 97 to 101 | CCOC(=O)OC1=C(c2cc(C)ccc2C)C(=O)NC1CC1CCS(=O)(=O)CC1 (stereo not drawn) [Compound P1.3] | – | – | – |
| 103 to 106 | CCOC(=O)OC1=C(c2cc(C)ccc2C)C(=O)NC1CC1CC[S+]([O-])CC1 (stereo not drawn) [Compound P1.4, carbonic acid 4-(2,5-dimethyl-phenyl)-5-oxo-2-(1-oxo-hexahydro-1λ^4-thiopyran-4-ylmethyl)-2,5-dihydro-1H-pyrrol-3-yl ester ethyl ester] | – | – | – |
| – | CCOC(=O)OC1=C(c2cc(C)ccc2C)C(=O)NC1CC1CCS(=O)(=NC#N)CC1 (stereo not drawn) [Compound P1.5] | – | > 80 | – |
| 190 to 192 | CCOC(=O)OC1=C(c2cc(C)ccc2C)C(=O)NC1CC1CCS(=NC(=O)C(F)(F)F)CC1 (stereo not drawn) [Compound P1.8] | – | – | – |
| 103 to 105 | CCOC(=O)OC1=C(c2cc(C)ccc2C)C(=O)NC1CC1CCS(=NC#N)CC1 (stereo not drawn) [Compound P1.9, carbonic acid 2-(1-cyanoimino-hexahydro-1λ^4-thiopyran-4-ylmethyl)-4-(2,5-dimethyl-phenyl)-5-oxo-2,5-dihydro-1H-pyrrol-3-yl ester ethyl ester] | – | – | – |
| – | CCOC(=O)OC1=C(c2c(C)cc(C)cc2C)C(=O)NC1CC1CCN(OC)CC1 (stereo not drawn) [Compound P1.10] | ≥ 80 | > 80 | > 80 |
| – | CCOC(=O)OC1=C(c2cc(C)ccc2C)C(=O)NC1C1CCN(OC)CC1 (stereo not drawn) [Compound P1.11] | ≥ 80 | – | > 80 |
| – | CCOC(=O)OC1=C(c2c(C)cc(C)cc2C)C(=O)NC1C1CCN(OC)CC1 (stereo not drawn) [Compound P1.12, carbonic acid ethyl ester 2-(1-methoxy-piperidin-4-yl)-5-oxo-4-(2,4,6-trimethyl-phenyl)-2,5-dihydro-1H-pyrrol-3-yl ester] | ≥ 80 | > 80 | > 80 |
| – | CCOC(=O)OC1=C(c2c(C)cc(C)cc2C)C(=O)N(C)C1CC1CCN(OC)CC1 (stereo not drawn) [Compound P1.13] | ≥ 80 | > 80 | – |
| – | CCOC(=O)OC1=C(c2c(C)cc(C)cc2C)C(=O)OC1CC1CCN(OC)CC1 (stereo not drawn) [Compound P1.14] | ≥ 80 | – | > 80 |
| – | CCOC(=O)OC1=C(c2c(C)cc(C)cc2C)C(=O)OC1C1CCN(OC)CC1 (stereo not drawn) [Compound P1.15] | ≥ 80 | > 80 | > 80 |
| – | Cc1cc(C)c(C2=C(OC(=O)C(C)(C)C)C(CC3CCOCC3)OC2=O)c(C)c1 (stereo not drawn) [Compound P1.16] | – | > 80 | – |

| melting point [°C] | SMILES | pest or weed control at 200 ppm [1] [%] | pest or weed control at 400 ppm [2] [%] | pest or weed control at 400 ppm [3] [%] |
| --- | --- | --- | --- | --- |
| – | CCOC(=O)OC1=C(c2c(C)cc(Cl)cc2C)C(=O)NC1C1CCN(OC)CC1 (stereo not drawn) [Compound P1.18] | – | > 80 | – |
| – | CCOC(=O)OC1=C(c2c(C)cc(Cl)cc2C)C(=O)NC1CC1CCN(OC)CC1 (stereo not drawn) [Compound P1.19] | – | – | > 80 |
| – | Cc1cc(C)c(C2C(=O)NC(CC3CCOCC3)C2=O)c(C)c1 (stereo not drawn) [Compound P2.1] | – | > 80 | – |
| – | CON1CCC(CC2NC(=O)C(c3cc(C)ccc3C)=C2O)CC1 (stereo not drawn) [Compound P2.2, 3-(2,5-dimethyl-phenyl)-4-hydroxy-5-(1-methoxy-piperidin-4-ylmethyl)-1,5-dihydro-pyrrol-2-one] | – | > 80 | – |
| 114 to 116 | Cc1ccc(C)c(C2C(=O)NC(CC3CCOCC3)C2=O)c1 (stereo not drawn) [Compound P2.4] | – | – | – |
| 244 to 246 | Cc1ccc(C)c(C2=C(O)C(CC3CCS(=O)(=O)CC3)NC2=O)c1 (stereo not drawn) [Compound P2.6, 3-(2,5-dimethyl-phenyl)-5-(1,1-dioxo-hexahydro-1λ^6-thiopyran-4-ylmethyl)-4-hydroxy-1,5-dihydro-pyrrol-2-one] | – | – | – |
| 189 to 191 | Cc1ccc(C)c(C2C(=O)NC(CC3CCS(=O)(=NC#N)CC3)C2=O)c1 (stereo not drawn) [Compound P2.9] | – | – | – |
| 142 to 145 | Cc1ccc(C)c(C2C(=O)NC(CC3CCN(C)CC3)C2=O)c1 (stereo not drawn) [Compound P2.10] | – | – | – |
| 133 to 136 | Cc1cc(C)c(C2C(=O)NC(CC3CCN(C)CC3)C2=O)c(C)c1 (stereo not drawn) [Compound P2.11] | – | – | – |
| 206 to 209 | CON1CCC(C2NC(=O)C(c3c(C)cc(C)cc3C)=C2O)CC1 (stereo not drawn) [Compound P2.12, 4-hydroxy-5-(1-methoxy-piperidin-4-yl)-3-(2,4,6-trimethyl-phenyl)-1,5-dihydro-pyrrol-2-one] | – | – | – |
| – | CON1CCC(CC2NC(=O)C(c3c(C)cc(C)cc3C)C2=O)CC1 (stereo not drawn) [Compound P2.13] | ≥ 80 | > 80 | > 80 |
| – | CON1CCC(C2NC(=O)C(c3cc(C)ccc3C)C2=O)CC1 (stereo not drawn) [Compound P2.14] | ≥ 80 | – | – |
| – | CON1CCC(CC2OC(=O)C(c3c(C)cc(C)cc3C)C2=O)CC1 (stereo not drawn) [Compound P2.16] | ≥ 80 | > 80 | > 80 |
| – | CON1CCC(C2OC(=O)C(c3c(C)cc(C)cc3C)C2=O)CC1 (stereo not drawn) [Compound P2.17] | ≥ 80 | > 80 | > 80 |
| – | CON1CCC(C2NC(=O)C(c3c(C)cc(Cl)cc3C)C2=O)CC1 (stereo not drawn) [Compound P2.21] | ≥ 80 | > 80 | > 80 |
| – | CON1CCC(CC2NC(=O)C(c3c(C)cc(Cl)cc3C)C2=O)CC1 (stereo not drawn) [Compound P2.22] | ≥ 80 | > 80 | – |
